Assay results from paper PMC12307812 (Nature Communications, 2025).

Columns and labels:
[1] = biological target: T1, Recombinant Human TMPRSS2 (Homo sapiens, UniProt O15393); experiment: TMPRSS2 biochemical assay with pre-incubation of inhibitor and enzyme; details: for inhibition at 2.788 pM: concentration 0.00278767 nM; for inhibition at 8.363 pM: concentration 0.00836301 nM; for inhibition at 25.09 pM: concentration 0.025089 nM; for inhibition at 75.27 pM: concentration 0.0752671 nM; for inhibition at 0.000225801 µM: concentration 0.225801 nM; for inhibition at 0.000677404 µM: concentration 0.677404 nM; for inhibition at 0.00203221 µM: concentration 2.03221 nM; for inhibition at 0.00609663 µM: concentration 6.09663 nM; for inhibition at 0.0182899 µM: concentration 18.2899 nM; for inhibition at 0.0548697 µM: concentration 54.8697 nM; for inhibition at 0.164609 µM: concentration 164.609 nM; for inhibition at 0.493827 µM: concentration 493.827 nM; for inhibition at 1.48148 µM: concentration 1481.48 nM; for inhibition at 4.44444 µM: concentration 4444.44 nM; for inhibition at 13.3333 µM: concentration 13333.3 nM; for inhibition at 40 µM: concentration 40000 nM
T1 construct: human TMPRSS2 residues 106492, N-terminal 6x His-tag; 6x His-tag (N); purchased Cusabio CSB-YP023924HU; host or cells: yeast
T1 sequence (O15393 106-492 limits assumed): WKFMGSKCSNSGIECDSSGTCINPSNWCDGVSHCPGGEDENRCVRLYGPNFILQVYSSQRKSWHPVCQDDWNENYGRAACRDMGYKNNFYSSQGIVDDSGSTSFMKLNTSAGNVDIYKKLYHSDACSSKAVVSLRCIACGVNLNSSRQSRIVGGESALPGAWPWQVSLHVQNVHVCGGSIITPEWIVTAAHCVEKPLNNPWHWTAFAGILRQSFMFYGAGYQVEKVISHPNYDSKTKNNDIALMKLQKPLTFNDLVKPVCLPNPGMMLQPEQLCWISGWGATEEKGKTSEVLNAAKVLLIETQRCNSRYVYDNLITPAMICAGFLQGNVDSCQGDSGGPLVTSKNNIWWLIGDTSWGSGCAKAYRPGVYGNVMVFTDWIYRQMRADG
Experimental: To that was dispensed TMPRSS2 (5 µl, 0.018 mg/ml) in assay buffer (50 mM Tris pH 8, 150 mM NaCl, 0.01% Tween20) using a BioRAPTR (Beckman Coulter) to give a total reaction volume of 5 µl. […] The final assay conditions are 10 µM peptide, 0.018 mg/ml TMPRSS2 in assay buffer (50 mM Tris-HCl, pH 8, 150 mM NaCl, 0.01% Tween20).
After incubation at room temperature for 1 h, fluorescence was measured. […] Raw plate reads for each titration point were normalized relative to a positive control containing no enzyme (0% activity, full inhibition) and a negative control containing DMSO-only wells (100% activity, basal activity). Data normalization was performed using GraphPad Prism (GraphPad Software, San Diego, CA).
We employed the curve fitting algorithm available in the SciPy package (version 1.10.1)[61] to derive the Hill slope and the IC50 value, along with their corresponding error estimates.
To model the relationship between the pre-incubation time and the IC50, we use the following equation inspired by the Morse potential:3 ft,a,D,te=D⋅1−exp−a⋅t−te^2 where t is the time, a is the width of the well, D is the IC50 at infinite time (depth of the well) and te is the time at which the IC50 reaches its minimum. Again, we made use of SciPy’s curve fitting method to obtain parameters a, D and te, with their respective error estimates.

[2] = test system: pseudovirus bearing S protein of HCoV-229E; experiment: organism not typed; format: cell-based
[3] = test system: pseudovirus bearing S protein of SARS-CoV-1; experiment: organism not typed; format: cell-based
[4] = Calu-3, read-out: mean inhibition

## CC(C)(C)NC(=O)N1CCN(C(=O)N2C(=O)C(CCCNC(=N)N)C2C(=O)O)CC1 (stereo not shown) [BMS-262084]
[1]; after 48 h of pre-incubation
  fold IC50 relative to camostat and nafamostat: 5 fold
[1]; pre-incubation 0
  inhibition at 2.788 pM: -15.1%
  inhibition at 8.363 pM: -14.4%
  inhibition at 25.09 pM: -2.55%
  inhibition at 75.27 pM: 9.07%
  inhibition at 0.000225801 µM: 39.6%
  inhibition at 0.000677404 µM: 61.8%
  inhibition at 0.00203221 µM: 83.9%
  inhibition at 0.00609663 µM: 90.2%
  inhibition at 0.0182899 µM: 93.8%
  inhibition at 0.0548697 µM: 94.7%
  inhibition at 0.164609 µM: 96.7%
  inhibition at 0.493827 µM: 97.7%
  inhibition at 1.48148 µM: 98.2%
  inhibition at 4.44444 µM: 98%
  inhibition at 13.3333 µM: 101%
  inhibition at 40 µM: 100%
[1]; pre-incubation 1
  inhibition at 2.788 pM: 9.6%
  inhibition at 8.363 pM: 9.83%
  inhibition at 25.09 pM: 32.2%
  inhibition at 75.27 pM: 60.8%
  inhibition at 0.000225801 µM: 90%
  inhibition at 0.000677404 µM: 96.9%
  inhibition at 0.00203221 µM: 97.1%
  inhibition at 0.00609663 µM: 97.8%
  inhibition at 0.0182899 µM: 97.1%
  inhibition at 0.0548697 µM: 97.8%
  inhibition at 0.164609 µM: 97.6%
  inhibition at 0.493827 µM: 98.2%
  inhibition at 1.48148 µM: 99.5%
  inhibition at 4.44444 µM: 100%
  inhibition at 13.3333 µM: 101%
  inhibition at 40 µM: 102%
[1]; pre-incubation 4
  inhibition at 2.788 pM: 5.94%
  inhibition at 8.363 pM: 11.2%
  inhibition at 25.09 pM: 52.1%
  inhibition at 75.27 pM: 87.4%
  inhibition at 0.000225801 µM: 99.5%
  inhibition at 0.000677404 µM: 99.4%
  inhibition at 0.00203221 µM: 99.5%
  inhibition at 0.00609663 µM: 99.5%
  inhibition at 0.0182899 µM: 99.8%
  inhibition at 0.0548697 µM: 99.8%
  inhibition at 0.164609 µM: 100%
  inhibition at 0.493827 µM: 100%
  inhibition at 1.48148 µM: 101%
  inhibition at 4.44444 µM: 101%
  inhibition at 13.3333 µM: 103%
  inhibition at 40 µM: 102%
[1]; pre-incubation 8
  inhibition at 2.788 pM: 25.7%
  inhibition at 8.363 pM: 29.7%
  inhibition at 25.09 pM: 84.9%
  inhibition at 75.27 pM: 109%
  inhibition at 0.000225801 µM: 113%
  inhibition at 0.000677404 µM: 114%
  inhibition at 0.00203221 µM: 114%
  inhibition at 0.00609663 µM: 116%
  inhibition at 0.0182899 µM: 115%
  inhibition at 0.0548697 µM: 116%
  inhibition at 0.164609 µM: 116%
  inhibition at 0.493827 µM: 116%
  inhibition at 1.48148 µM: 118%
  inhibition at 4.44444 µM: 119%
  inhibition at 13.3333 µM: 118%
  inhibition at 40 µM: 118%
[1]; pre-incubation 18
  inhibition at 2.788 pM: 20.8%
  inhibition at 8.363 pM: 24.6%
  inhibition at 25.09 pM: 83.1%
  inhibition at 75.27 pM: 92.8%
  inhibition at 0.000225801 µM: 95.2%
  inhibition at 0.000677404 µM: 95.6%
  inhibition at 0.00203221 µM: 98.1%
  inhibition at 0.00609663 µM: 98.2%
  inhibition at 0.0182899 µM: 99.5%
  inhibition at 0.0548697 µM: 101%
  inhibition at 0.164609 µM: 102%
  inhibition at 0.493827 µM: 103%
  inhibition at 1.48148 µM: 102%
  inhibition at 4.44444 µM: 103%
  inhibition at 13.3333 µM: 104%
  inhibition at 40 µM: 105%
[1]; pre-incubation 24
  inhibition at 2.788 pM: 45.1%
  inhibition at 8.363 pM: 50.8%
  inhibition at 25.09 pM: 105%
  inhibition at 75.27 pM: 110%
  inhibition at 0.000225801 µM: 114%
  inhibition at 0.000677404 µM: 114%
  inhibition at 0.00203221 µM: 114%
  inhibition at 0.00609663 µM: 115%
  inhibition at 0.0182899 µM: 116%
  inhibition at 0.0548697 µM: 115%
  inhibition at 0.164609 µM: 116%
  inhibition at 0.493827 µM: 116%
  inhibition at 1.48148 µM: 117%
  inhibition at 4.44444 µM: 117%
  inhibition at 13.3333 µM: 117%
  inhibition at 40 µM: 117%
[1]; pre-incubation 48
  inhibition at 2.788 pM: 32.3%
  inhibition at 8.363 pM: 30.9%
  inhibition at 25.09 pM: 88.5%
  inhibition at 75.27 pM: 93.1%
  inhibition at 0.000225801 µM: 95.9%
  inhibition at 0.000677404 µM: 96.1%
  inhibition at 0.00203221 µM: 94.8%
  inhibition at 0.00609663 µM: 94.5%
  inhibition at 0.0182899 µM: 96.1%
  inhibition at 0.0548697 µM: 96.3%
  inhibition at 0.164609 µM: 97.7%
  inhibition at 0.493827 µM: 99.7%
  inhibition at 1.48148 µM: 101%
  inhibition at 4.44444 µM: 105%
  inhibition at 13.3333 µM: 109%
  inhibition at 40 µM: 112%
[2]; Calu-3, read-out: IC50 estimate, pseudovirus cell entry 229E-S
  IC50: 990 ± 209 nM
[2]; [4]
  inhibition at 0.00025 µM: 0.992%
  inhibition at 0.0025 µM: 8.96%
  inhibition at 0.025 µM: 22%
  inhibition at 0.25 µM: 42.2%
  inhibition at 2.5 µM: 58.4%
  inhibition at 25 µM: 72.2%
[3]; Calu-3, read-out: IC50 estimate, pseudovirus cell entry SARS-1-S
  IC50: 82 ± 23.1 nM
[3]; Calu-3, concentration 0.25 nM
  inhibition at 0.00025 µM: 3.34%
[3]; Calu-3, concentration 2.5 nM
  inhibition at 0.0025 µM: 5.92%
[3]; Calu-3, concentration 25 nM
  inhibition at 0.025 µM: 31.7%
[3]; Calu-3, concentration 250 nM
  inhibition at 0.25 µM: 73.6%
[3]; Calu-3, concentration 2500 nM
  inhibition at 2.5 µM: 80.6%
[3]; Calu-3, concentration 25000 nM
  inhibition at 25 µM: 91.7%
